Results on one compound are retold here after patent US20120178124A1, “STEROL SIDE CHAIN-CLEAVING ENZYME PROTEIN AND USE THEREOF” (MITSUBISHI CHEMICAL CORPORATION, priority 2009, published 2012).

One test concerns the target T1, CYP11A (Homo sapiens, UniProt P05108).
T1 construct: A 1.45-kb CYP11A1 gene fragment amplified as a result of the above-described reaction; expressed in transfected cells; host or cells: Escherichia coli BL21(DE3), plasmid pCYP11A-ARX (strain BL21CYP11)
T1 sequence (P05108 40-521): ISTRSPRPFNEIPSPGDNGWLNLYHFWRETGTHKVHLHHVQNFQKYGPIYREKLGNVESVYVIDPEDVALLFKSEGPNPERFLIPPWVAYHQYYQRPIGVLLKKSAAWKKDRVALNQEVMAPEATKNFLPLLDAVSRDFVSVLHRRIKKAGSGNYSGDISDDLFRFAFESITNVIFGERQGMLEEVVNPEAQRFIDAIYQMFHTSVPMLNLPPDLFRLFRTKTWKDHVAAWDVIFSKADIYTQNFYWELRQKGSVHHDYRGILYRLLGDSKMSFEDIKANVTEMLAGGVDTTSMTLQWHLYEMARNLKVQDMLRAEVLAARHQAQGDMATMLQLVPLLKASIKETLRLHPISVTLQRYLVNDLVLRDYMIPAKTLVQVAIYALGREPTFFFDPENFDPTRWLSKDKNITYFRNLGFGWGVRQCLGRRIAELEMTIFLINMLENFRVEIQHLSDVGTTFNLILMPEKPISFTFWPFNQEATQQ
The experiment in a line: Conversion reaction of substrates by CYP11A-expressing Escherichia coli. The class given is cell-based. The method, then: The Escherichia coli expression strain BP215 was inoculated into 2 ml of an M9 mix medium (Na2HPO4: 0.68%, KH2PO4: 0.3%, NaCl: 0.05%, NH4C;: 0.01%, Casamino acid: 1%, D-Glucose: 0.4%, CaCl2: 0.1 mM, MgCl2: 1 mM, Thiamine: 0.002%, FeSO4: 0.1 mM, Carbenicillin: 0.005%), and it was then subjected to shaking culture at 30° C. for 17 hours, so as to obtain pre-culture solution. 0.25 ml of this pre-culture solution was inoculated into 25 ml of the main culture medium (Na2HPO4: 0.68%, KH2PO4: 0.3%, NaCl: 0.05%, NH4Cl: 0.01%, Casamino acid: 1%, CaCl2: 0.1 mM, MgCl2: 1 mM, Thiamine: 0.002%, FeSO4: 0.1 mM, Carbenicillin: 0.005%, Overnight Express™ solution: 7%, 5-Aminolevlic acid: 0.008%) using Overnight Express™ Autoinduction System (Novagen Cat. No. 71300-4), and it was then subjected to shaking culture at 25° C. for 24 hours. 5 ml of the obtained main culture solution was centrifuged (3500 rpm, 10 minutes) to obtain cell mass, and 1 ml of CV2 buffer (50 mM (pH) potassium phosphate buffer containing glycerol: 2%, carbenicillin: 0.005%, and isopropyl β-D-1-thiogalactopyranoside: 0.1 mM) was added to the obtained cell mass. Thereafter, 0.01 ml of the methanol solution of 1% 4-cholesten-3-one and 0.02 ml of an aqueous solution of 25% methyl-β-cyclodextrin were added to the mixed solution, and the obtained mixture was then shaken at 28° C. for 5 hours for the reaction. After completion of the reaction, 4 ml of methanol was added to the reaction solution, and they were then fully mixed. The obtained mixture was centrifuged, and the upper layer was then analyzed by HPLC.
A commercially available human testis cDNA (Origene Technologies, Inc.) was used as a template, and a CYP11A1 gene was amplified by PCR using a primer CYP11A-1F (SEQ ID NO: 19) and a primer CYP11A-2R (SEQ ID NO: 20), and also using KOD plus polymerase (TOYOBO Co., Ltd.). The temperature conditions applied during the PCR were 94° C./3 min, 30 cycles of (94° C./30 sec, 55° C./60 sec, and 72° C./90sec), and 72° C./5 min.
A 1.45-kb CYP11A1 gene fragment amplified as a result of the above-described reaction was purified using QIAquick PCR purification Kit (manufactured by QIAGEN), and it was then digested with Nde I and Spe I. Thereafter, the digest was ligated to Escherichia coli expression vector pT7NS-camAB, using T4 DNA ligase, and Escherichia coli DH5α was then transformed with the obtained expression vector, so as to construct a plasmid pCYP11A-camAB. Subsequently, using T4 DNA ligase, the previously prepared bovine-derived adrenodoxin reductase protein-adrenodoxin gene (adr-adx) fragment was inserted into and ligated to each of the Spe I and Bam HI sites of the above-described plasmid, and Escherichia coli DH5a was then transformed with the obtained plasmid, so as to construct plasmid pCYP11A-ARX. Thereafter, Escherichia coli BL21(DE3) was transformed with the thus constructed plasmid, and the obtained cell strain was named as BL21CYP11. The used adx-adr fragment was amplified by PCR with a plasmid pKARX (Sawada et. al. Eur. J. Biochem. 265, 950-956,1999) as a template, using primer bAdxR-1F (SEQ ID NO: 21) and primer bAdx-2R (SEQ ID NO: 22), and also using KOD plus polymerase (manufactured by TOYOBO Co., Ltd.). The temperature condition applied during the PCR were 94° C./3 min, 25 cycles of (94° C./30 sec, 60° C./30 sec, and 72° C./120sec), and 72° C./5 min.
Each substrate was subjected to the same reaction as that of Example 6, separately, and the reaction solution was then subjected to liquid separation using 1 ml of ethyl acetate. The reaction product and the substrate were extracted, and were then analyzed by HPLC.

Test [1] has as its target T2, Sphingomonas subterranea NBRC16086 P450scc CYPSS204A (CYPSS), wild type, SEQ ID NO: 2 (Novosphingobium subterraneum, UniProt A0A0B8ZS99).
T2 sequence (A0A0B8ZS99 1-472): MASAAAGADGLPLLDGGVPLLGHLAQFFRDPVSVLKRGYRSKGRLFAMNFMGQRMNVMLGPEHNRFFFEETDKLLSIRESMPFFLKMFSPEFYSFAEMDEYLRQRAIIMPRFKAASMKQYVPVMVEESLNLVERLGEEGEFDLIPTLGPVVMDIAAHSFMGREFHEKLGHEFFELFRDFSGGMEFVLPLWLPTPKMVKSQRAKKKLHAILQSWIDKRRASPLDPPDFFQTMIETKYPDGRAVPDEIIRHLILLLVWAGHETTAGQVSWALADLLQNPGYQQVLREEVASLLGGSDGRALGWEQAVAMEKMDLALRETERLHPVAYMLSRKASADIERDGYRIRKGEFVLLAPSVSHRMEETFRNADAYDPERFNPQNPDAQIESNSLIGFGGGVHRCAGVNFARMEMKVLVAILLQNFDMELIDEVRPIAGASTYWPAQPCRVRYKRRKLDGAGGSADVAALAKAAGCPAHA
The test can be described thus: Kinetics analysis of CYPSS with 4-cholesten-3-one (conversion to progesterone, cell-free extract).

Entries after “also recorded” stand apart in the source; their conditions may differ.

Consider `CC(C)CCC[C@@H](C)[C@H]1CC[C@H]2[C@@H]3CCC4=CC(=O)CC[C@]4(C)[C@H]3CC[C@]12C` [4-cholesten-3-one], for which the added substrate remained at CYP11A (same reaction as Example 6) was 100%. On CYP11A (same reaction as Example 6 (28° C., 5 hours)), this compound yielded a Conversion rate of 0%. Further, in test [1] (4-cholesten-3-one 0.1 to 500 μM, pH 7.5, 15° C., 60 minutes, Lineweaver-Burk plot), the Vmax came to 78.7 mmol/min/mol. The substrate inhibition entry in test [1] (4-cholesten-3-one, in words) is on record as “hardly undergoes substrate inhibition; also recorded: substrate inhibition of CYPSS was lower than that of CYP204A1”. The “Vmax, times higher than that of CYP204A1” value in test [1] (compared with CYP204A1) was “approximately 1.7 times”. For the same compound, in test [1] (relative to CYP204A1 (1.00)), the “Vmax, relative activity” value came out at 1.66. Also, in test [1] (substrate concentration increased from 10 μM to 100 μM, pH 7.5, 15° C.), the “decrease rate of the enzyme protein activity (substrate inhibition)” value was 10%.
